The source of these data is PubChem BioAssay (NCI).

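Tested at 5 concentrations; 48 h exposure; 96-well plates; endpoints linearly interpolated, else capped at highest concentration. GI50 = concentration required for 50% inhibition of growth. TGI denotes the concentration required for complete inhibition of growth.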 A value given as a limit tells only on which side of the number the result lay.

Some test systems named below: BT-549 breast; CAKI-1 renal; HL-60(TB) leukemia; HOP-92 NSCLC; MDA-MB-435; NCI-H23 lung; NCI-H460 lung; PC-3 prostate; RXF 393 renal; SK-MEL-28 melanoma.
Common to all, as to test: NCI tumour cell line growth inhibition, 48 h

Consider `O=C1CCCC2C3CC(CN12)C1CCCCN1C3` (centres undefined), for which the TGI in the assay with BT-549 breast, in the assay on CAKI-1 renal, in the assay with HL-60(TB) leukemia, in the assay with HOP-92 NSCLC, in the assay on MDA-MB-435 and in the assay with NCI-H23 lung was > 100 µM in each case. For the same compound, the TGI in the assay with NCI-H460 lung, in the assay with PC-3 prostate, with RXF 393 renal and in the assay with SK-MEL-28 melanoma was > 100 µM each time.
As to `C=CCSSCC=C`, the TGI was > 81.5 µM in the assay with BT-549 breast; > 100 µM with CAKI-1 renal; 46 µM in the assay with HL-60(TB) leukemia; > 100 µM in the assay on HOP-92 NSCLC; > 84.7 µM with MDA-MB-435; > 95.9 µM in the assay on NCI-H23 lung. Further, the TGI with NCI-H460 lung is > 100 µM; in the assay on PC-3 prostate it was > 100 µM; with RXF 393 renal it was > 74 µM; with SK-MEL-28 melanoma, > 100 µM.
Consider `COc1c(OC/C=C(\C)CCC=C(C)C)ccc2ccc(=O)oc12`, for which the TGI in the assay on BT-549 breast, in the assay with CAKI-1 renal, in the assay with HL-60(TB) leukemia, in the assay on HOP-92 NSCLC, in the assay with MDA-MB-435 and with NCI-H23 lung was > 100 µM throughout. Further, the TGI with PC-3 prostate and in the assay on SK-MEL-28 melanoma was > 100 µM each time.
On to `O=C1OCc2cc3cc4c(cc3c(-c3ccc5c(c3)OCO5)c21)OCO4` (tested in a mixture with another compound), for which the TGI in the assay with BT-549 breast is > 100 µM; in the assay on CAKI-1 renal, 86.7 µM; in the assay with HL-60(TB) leukemia, > 100 µM; with HOP-92 NSCLC it was 43.5 µM; in the assay on MDA-MB-435, > 100 µM; in the assay with NCI-H23 lung, > 100 µM. For the same compound, the TGI was > 100 µM in the assay with NCI-H460 lung, > 100 µM in the assay with PC-3 prostate, 22.5 µM in the assay on RXF 393 renal and > 100 µM in the assay with SK-MEL-28 melanoma.
Consider `CN1CC(CNC(=O)OCc2ccccc2)CC2c3cccc4c3c(cn4C)CC21` (centres undefined), for which the GI50 in the assay on BT-549 breast is 2.07 µM; with CAKI-1 renal, 1.68 µM; in the assay on HL-60(TB) leukemia, 1.91 µM; with HOP-92 NSCLC, 1.72 µM; with MDA-MB-435 it was 1.81 µM; in the assay on NCI-H23 lung it was 2.61 µM. Besides, the GI50 in the assay with NCI-H460 lung is 1.83 µM; in the assay with PC-3 prostate, 2.07 µM; with RXF 393 renal, 1.74 µM; in the assay with SK-MEL-28 melanoma it was 1.62 µM. Also, the TGI with BT-549 breast is 4.62 µM; in the assay on CAKI-1 renal, 3.65 µM; in the assay on HL-60(TB) leukemia, 3.85 µM; in the assay with HOP-92 NSCLC, 5.95 µM; in the assay with MDA-MB-435, 3.53 µM; in the assay on NCI-H23 lung, 10.6 µM. Moreover, the TGI with NCI-H460 lung came out at 3.55 µM; in the assay with PC-3 prostate, 6.28 µM; in the assay on RXF 393 renal, 3.2 µM; with SK-MEL-28 melanoma, 3.03 µM.
For `c1ccc(C[N+]23CN4CN(CN(C4)C2)C3)cc1`, the TGI was > 100 µM in the assay with BT-549 breast; > 100 µM in the assay with CAKI-1 renal; 57.2 µM with HL-60(TB) leukemia; 70.2 µM with HOP-92 NSCLC; 45.5 µM in the assay with MDA-MB-435; 36.6 µM with NCI-H23 lung. In addition, the TGI in the assay on NCI-H460 lung was > 100 µM; with PC-3 prostate, 35.7 µM; in the assay on RXF 393 renal, 36.8 µM; with SK-MEL-28 melanoma, 60.9 µM.
`O=C1OC2CC=CC1C2` (centres undefined): the TGI with HL-60(TB) leukemia, in the assay with HOP-92 NSCLC, with NCI-H23 lung, in the assay on NCI-H460 lung, in the assay with RXF 393 renal and in the assay with SK-MEL-28 melanoma was > 100 µM each time.
In the case of `COc1cc(/C=C/C(=O)CC(=O)/C=C/c2ccc(O)c(OC)c2)ccc1O`, the TGI in the assay with BT-549 breast was 13.7 µM; with CAKI-1 renal it was 25.1 µM; with HL-60(TB) leukemia it was 25 µM; in the assay with MDA-MB-435, 12.1 µM; in the assay with NCI-H23 lung, 31.8 µM; in the assay on NCI-H460 lung, 23.1 µM. Further, the TGI in the assay with PC-3 prostate came to 26 µM; in the assay with RXF 393 renal it was 11.3 µM; in the assay on SK-MEL-28 melanoma, 15.9 µM.
As for `O=C(/C=C/c1ccccc1)N1CCCCC1`, the TGI in the assay with BT-549 breast, in the assay with CAKI-1 renal, in the assay on HL-60(TB) leukemia, with HOP-92 NSCLC, in the assay with MDA-MB-435 and in the assay on NCI-H23 lung was > 100 µM throughout. Also, the TGI with NCI-H460 lung, with PC-3 prostate, in the assay with RXF 393 renal and with SK-MEL-28 melanoma was > 100 µM each time.
`Br/C(=N\Nc1nn[nH]n1)c1ccncc1`: the TGI with BT-549 breast, with CAKI-1 renal, in the assay with HL-60(TB) leukemia, in the assay with HOP-92 NSCLC, with MDA-MB-435 and in the assay with NCI-H23 lung was > 100 µM in each case. The TGI in the assay with NCI-H460 lung, in the assay on PC-3 prostate, in the assay with RXF 393 renal and with SK-MEL-28 melanoma was > 100 µM in each case.
Take `C=C1C(=O)OC2CC1CCC1(C)OC1CCC(C)=CCCC2(C)O` (centres undefined): the TGI stood at 7.7 µM in the assay with CAKI-1 renal; 2.62 µM in the assay with HL-60(TB) leukemia; 5.89 µM in the assay on HOP-92 NSCLC; 7.25 µM in the assay with NCI-H23 lung; 7.85 µM in the assay with NCI-H460 lung; 3.61 µM in the assay with RXF 393 renal. In the assay on SK-MEL-28 melanoma, this compound had a TGI of 10.7 µM.
Regarding `O=C(COc1ccc(Cl)c(Cl)c1)N(Cc1ccccc1)Cc1ccc[n+](Cc2ccc(Cl)cc2S(=O)(=O)F)c1`, the TGI was > 100 µM in the assay with CAKI-1 renal; 94.5 µM in the assay on HL-60(TB) leukemia; > 100 µM in the assay with HOP-92 NSCLC; > 100 µM in the assay with MDA-MB-435; > 100 µM in the assay on NCI-H23 lung; > 100 µM with NCI-H460 lung. Further, the TGI with PC-3 prostate, in the assay on RXF 393 renal and in the assay on SK-MEL-28 melanoma was > 100 µM in each case.
Turning to `Cc1cc(C)nc(SCCc2cccc[n+]2C)n1`, the TGI in the assay on BT-549 breast, with CAKI-1 renal, in the assay on HL-60(TB) leukemia, in the assay with HOP-92 NSCLC, in the assay on MDA-MB-435 and in the assay on NCI-H23 lung was > 100 µM in each case. For the same compound, the TGI with NCI-H460 lung, in the assay on PC-3 prostate, in the assay on RXF 393 renal and with SK-MEL-28 melanoma was > 100 µM each time.
On to `CCCC(=O)O.CCCC(=O)O.CCCC(=O)O.CCCC(=O)O.[Rh].[Rh]`, for which the GI50 in the assay on BT-549 breast was 0.0314 µM; in the assay on CAKI-1 renal it was 0.035 µM; in the assay with HL-60(TB) leukemia it was 0.0448 µM; in the assay on HOP-92 NSCLC, 0.211 µM; in the assay with NCI-H460 lung it was 0.165 µM; in the assay with PC-3 prostate it was 0.0618 µM. For the same compound, the GI50 in the assay with RXF 393 renal was 0.0224 µM. Also, the TGI in the assay with BT-549 breast came to 0.101 µM; in the assay with CAKI-1 renal, 0.106 µM; with HL-60(TB) leukemia it was 0.351 µM; in the assay with HOP-92 NSCLC, 0.476 µM; in the assay on NCI-H460 lung, 0.327 µM; in the assay on PC-3 prostate, 0.47 µM. The TGI in the assay with RXF 393 renal was determined as 0.052 µM.
For `CC(=O)NNC(=O)C1CCCCN1` (centres undefined), the TGI in the assay on BT-549 breast, in the assay with CAKI-1 renal, with HL-60(TB) leukemia, with HOP-92 NSCLC, in the assay on MDA-MB-435 and in the assay on NCI-H23 lung was > 100 µM throughout. Also, the TGI with NCI-H460 lung, in the assay with PC-3 prostate, with RXF 393 renal and in the assay on SK-MEL-28 melanoma was > 100 µM each time.
With `O=C(Oc1ccc(Cl)cc1[N+](=O)[O-])c1ccccc1`, the TGI in the assay on HL-60(TB) leukemia, in the assay with HOP-92 NSCLC, in the assay on NCI-H23 lung, in the assay with NCI-H460 lung, in the assay with RXF 393 renal and in the assay on SK-MEL-28 melanoma was > 100 µM in each case.
Turning to `SC1CCCN(Cc2ccccc2)C1` (centres undefined), the TGI is > 100 µM in the assay with BT-549 breast; > 100 µM in the assay on CAKI-1 renal; > 100 µM with HL-60(TB) leukemia; > 100 µM with HOP-92 NSCLC; > 100 µM in the assay on MDA-MB-435; 81.5 µM with NCI-H23 lung. Further, the TGI in the assay on NCI-H460 lung was 64.7 µM; in the assay with PC-3 prostate it was > 100 µM; with RXF 393 renal it was > 100 µM; with SK-MEL-28 melanoma, > 100 µM.
As for `COc1ccc(OC)c(CC(C)N)c1` (centres undefined), the TGI with CAKI-1 renal, in the assay with NCI-H23 lung, in the assay on NCI-H460 lung, in the assay with RXF 393 renal and in the assay on SK-MEL-28 melanoma was > 100 µM throughout.
